Results taken from patent publication US20230279011A1, “WATER-SOLUBLE TRYPTHANTRIN DERIVATIVES FOR REDOX FLOW BATTERIES” (UNIVERSIDADE DE COIMBRA, priority 2020, published 2023).
Where two headings read alike, the source gives them in different places.

Key:
[1] = Cyclic voltammetry scan rate study: diffusion coefficient (Randles-Sevcik) and electron transfer rate constant (Nicholson); type: physicochemical
Description: To further verify the correlation between the reaction rate of the catholyte/anolyte pair with the performance and stability of the RFBs, the kinetic parameters, diffusion coefficient (D), and electron transfer rate constant (k0), were quantified.
Electrochemical kinetics studies were conducted by CV measurements and Nicholson analysis. […] The Randles-Sevcik equation, described in Elgrishi et al, A Practical Beginner's Guide to Cyclic Voltammetry. Journal of Chemical Education 2018, 95 (2), 197-206, was used to calculate the diffusion coefficient (D in cm^2 s^−1). A linear fit (ip=slope x v½) yields the slope of the cathodic and anodic peaks from which the D was obtained.
(§1) The electron transfer rate constant (k0) of K4[Fe(CN)6]/TRYP-SO3 redox couple was estimated by using the Nicholson method using the D values previously obtained, as described in Nicholson, R. S., Theory and Application of Cyclic Voltammetry for Measurement of Electrode Reaction Kinetics. Analytical Chemistry 1965, 37 (11), 1351-1355.
as §1, with “BQDS/TRYP-SO3” for “K4[Fe(CN)6]/TRYP-SO3”, “couple and TRYP-NH2” for “couple”
First, a solution of 1.0 mM of K4[Fe(CN)6] with 1.0 M of KCl in 10 mL of Milli-Q water was used as catholyte. Second, the catholyte was prepared by dissolving 1.0 mM of BQDS into 10 mL of 1.0 M KCl solution. All the solutions were degassed with nitrogen for 10 min prior to analysis. An atmosphere of nitrogen was maintained during the voltammetric experiments, and the samples were run at a scan rate of 10-100 mV s^−1 range. All the CV experiments were carried out at T=293 K.

[2] = Cyclic voltammetry: oxidation/reduction potentials vs. Ag/AgCl; type: physicochemical
From the text: Klimovich, A. A., Popov, A. M., Krivoshapko, O. N., Shtoda, Y. P. & Tsybulsky, A. V. A comparative assessment of the effects of alkaloid tryptanthrin, rosmarinic acid, and doxorubicin on the redox status of tumor and immune cells. Biophysics 62, 588-594 (2017) and in Jahng, Y. Progress in the studies on tryptanthrin, an alkaloid of history. Arch. Pharm. Res. 36, 517-535 (2013)), the electrochemical behavior of the compounds was initially performed by measuring cyclic voltammetry (CV) of TRYP at different pH values. Cyclic voltammograms (CVs) are presented in FIG. 3 and the relevant electrochemical data including the oxidation (Epa) and reduction (Epc) potentials are summarized in table 1.
Cyclic voltammetry (CV) experiments were carried out using an Autolab potentiostat/galvanostat PGSTAT204 running with NOVA 2.1 software and a three-electrode system in a one-compartment electrochemical cell of capacity 10 mL. A glassy carbon electrode (GCE) (d=3 mm) was the working electrode, glassy carbon (GC) (d=1.6 mm) wires the counter electrode and Ag/AgCl (3.0 M KCl) the reference electrode. The GCE was polished with appropriate polishing pads using first aluminium oxide with particle size 0.3 μm and then aluminium oxide particle with size 0.075 μm (polish in a […] motion) before each electrochemical experiment. After polishing, the electrode was rinsed thoroughly with Milli-Q water and the electrode was sonicate in a container with Milli-Q water and ethanol (50:50 v/v) for 5 minutes. Following this mechanical treatment, the GCE was placed in buffer supporting electrolyte and differential pulse voltammograms were recorded until a steady state baseline voltammogram was obtained.
Depending on the pH experiments different electrolytes were used, for pH=0 (1.0 M H2SO4) solution, for pH=7 (1.0 M KCl) solution and pH =13 (1.0 M NaOH) solution. Potassium ferricyanide ([…]) (1.0 mM solution) with 1.0 M of the proper electrolyte in 10 mL of Milli-Q water was used as standard and also degassed with nitrogen for 10 minutes prior to analysis. Lastly, to measure the OCV for BQDS, 1.0 mM was dissolved into 1.0 M KCl solution. An atmosphere of nitrogen was maintained during the voltammetric experiments, and the samples were run at a scan rate of 50 mV s^−1.

[3] = in 1.0 M H2SO4; cited from earlier work
[4] = acidic medium, reported studies; cited from earlier work
[5] = Solubility in supporting electrolyte / water; type: physicochemical; details: 1.0 M KCl solution, saline or isotonic; in 1.0 M KCl
[6] = 1.0 mM in 1.0 M KCl, Nicholson method, T = 293 K
[7] = neutral pH, 1.0 mM in 1.0 M KCl

| SMILES | Electron transfer rate constant (k0) [1, 6] | Redox potential vs. Ag/AgCl [2, 7] | Diffusion coefficient (D) [1] | Electron transfer rate constant (k0) [1] | Redox potential vs. Ag/AgCl [2] | Oxidation potential Epa^1 (first peak) ([2]; pH 13) | Oxidation potential Epa^2 (second peak) ([2]; pH 13) | Oxidation potential Epa^3 (third peak) ([2]; pH 13) | Reduction potential Epc^1 (first peak) ([2]; pH 13) | Reduction potential Epc^2 (second peak) ([2]; pH 13) | Reduction potential Epc^3 (third peak) ([2]; pH 13) | Solubility in sulfuric acid [3] | Diffusion coefficient (D) ([1]; 1.0 mM in 1.0 M KCl, 10-100 mV s^−1, T = 293 K) | Electrode potential [4] | solubility [5] | Electrode potential in KCl ([2]; in KCl, neutral pH) |
| --- | --- | --- | --- | --- | --- | --- | --- | --- | --- | --- | --- | --- | --- | --- | --- | --- |
| Nc1ccc2nc3n(c(=O)c2c1)-c1ccccc1C3=O [TRYP-NH2, 2-aminoindolo[2,1-b]quinazoline-6,12-dione] | 0.264 cm/s | −0.45 V |  |  |  |  |  |  |  |  |  |  |  |  |  |  |
| O=C1c2cc(S(=O)(=O)O)ccc2-n2c1nc1ccccc1c2=O [TRYP-SO3H, 6,12-dioxo-6,12-dihydroindolo[2,1-b]cquinazoline-8-sulfonic acid] |  |  | 6.98e-08 cm/s | 0.000362 cm/s | −0.46 V | Epa^1 = 0.225 V | Epa^2 = 0.738 V | Epa^3 = 1.178 V | Epc^1 = −0.325 V | Epc^2 = −0.802 V | Epc^3 = −0.930 V |  |  |  |  |  |
| O.O=S(=O)([O-])c1cc(O)c(O)c(S(=O)(=O)[O-])c1.[Na+].[Na+] [BQDS, 4,5-dihydroxy-1,3-benzenedisulfonic acid disodium salt monohydrate, reference compound] | 0.000271 cm/s | 0.48 V |  |  |  |  |  |  |  |  |  | 650 mM | 5.38e-07 cm/s | 0.76 V | 1280 mM | 0.94 V |
